Results: ChEMBL document CHEMBL1124484, “Effects of 8-phenyl and 8-cycloalkyl substituents on the activity of mono-, di-, and trisubstituted alkylxanthines with substitution at the 1-, 3-, and 7-positions” (J Med Chem, 1989)

Experiments:
Adenosine A2 receptor [1] = target: Adenosine A2 receptor (Homo sapiens, UniProt P29275+P29274)
Description: Inhibition of the stimulation by 5'-(N-ethylcarbamoyl) adenosine of adenyl cyclase via adenosine A2 receptor in human platelet membranes.

Adenosine receptor A1 [2] = target: T1, Adenosine receptor A1 (Rattus norvegicus, UniProt P25099); experiment: Inhibition of 1 nM [3H]- N6-(phenylisopropyl) adenosine binding to Adenosine A1 receptor in rat cerebral cortical membranes; assay type: cell membranes, Membrane
T1 sequence (P25099 whole entry): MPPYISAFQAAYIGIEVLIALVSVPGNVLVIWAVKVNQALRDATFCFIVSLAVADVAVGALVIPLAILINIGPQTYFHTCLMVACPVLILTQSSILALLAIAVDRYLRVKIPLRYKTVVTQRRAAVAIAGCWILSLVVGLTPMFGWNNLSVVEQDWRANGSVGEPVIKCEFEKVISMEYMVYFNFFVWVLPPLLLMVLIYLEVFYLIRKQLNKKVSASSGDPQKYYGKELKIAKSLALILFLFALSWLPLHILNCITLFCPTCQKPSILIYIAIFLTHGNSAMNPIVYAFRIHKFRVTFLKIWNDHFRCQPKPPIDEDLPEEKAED

Adenosine receptor A1 [3] = target: T1, Adenosine receptor A1; experiment: Inhibition of 1 nM [3H]- N6 -(phenylisopropyl) adenosine binding to Adenosine A1 receptor in rat fat cell membrane; assay type: cell-based
Adenosine receptor A1 [4] = target: T1, Adenosine receptor A1; experiment: Inhibition of […] nM [3H]- N6- (phenylisopropyl) adenosine binding to Adenosine A1 receptor
Adenosine A2 receptor [5] = target: Adenosine A2 receptor (Rattus norvegicus, UniProt P29276+P30543); settings: pc-12
Description: Inhibition of the stimulation by 5'-(N-ethylcarbamoyl) adenosine of adenyl cyclase via Adenosine A2 receptor in rat PC12 membranes

Adenosine receptor A1 [6] = target: T1, Adenosine receptor A1; experiment: Inhibition of N6-(phenylisopropyl)adenosine-elicited inhibition of adenylate cyclase at A1 adenosine receptor in rat fat cell membrane
Adenosine receptor A1 [7] = target: T1, Adenosine receptor A1; experiment: Inhibition of […] nM [3H]- N6- (phenylisopropyl) adenosine binding to A1 adenosine receptor in rat cerebral cortical membranes; assay type: cell membranes, Membrane
Adenosine receptor A1 [8] = target: T1, Adenosine receptor A1; experiment: Inhibition of […] nM [3H]- N6- (phenylisopropyl) adenosine binding to Adenosine A1 receptor in rat cerebral cortical membranes; I = Inactive; assay type: cell membranes, Membrane
Adenosine receptor A1 [9] = target: T1, Adenosine receptor A1; experiment: Inhibition of N6-(phenylisopropyl)adenosine-elicited inhibition of adenylate cyclase at Adenosine A1 receptor in rat fat cell membrane; I =inactive

Compound | Ki (Adenosine A2 receptor [1]) | Ki (Adenosine receptor A1 [2]) | Ki (Adenosine receptor A1 [3]) | Ki (Adenosine A2 receptor [5]) | also measured
CC(C)CCn1c(=O)c2nc(-c3ccc(S(=O)(=O)O)cc3)[nH]c2n(CC(C)C)c1=O | 520 nM | 1200 nM |  |  | 
Cn1c(=O)c2c(nc(-c3ccc(C(=O)O)cc3)n2C)n(C)c1=O | 150000 nM | 61000 nM |  |  | 
CCCn1c(=O)c2nc[nH]c2n(CCC)c1=O |  | 710 nM | 1600 nM |  | 
Cn1c(=O)[nH]c2[nH]cnc2c1=O [1-METHYLXANTHINE] | 1900 nM |  |  |  | Ki (Adenosine receptor A1 [4]): 17000 nM
Cn1c(=O)c2c(nc(C3CCCCC3)n2C)n(C)c1=O | 190 nM |  |  |  | 
CC(C)CCn1c(=O)c2nc[nH]c2n(CC(C)C)c1=O | 6500 nM | 1600 nM |  |  | 
Cn1c(=O)[nH]c(=O)c2[nH]cnc21 [3-METHYLXANTHINE] | 240000 nM | 35000 nM |  |  | 
CCCn1c(=O)[nH]c(=O)c2[nH]c(-c3ccc(S(=O)(=O)O)cc3)nc21 | 2700 nM | 58000 nM | 33000 nM | 17000 nM | 
CCCn1c(=O)c2c(nc(-c3ccccc3)n2C)n(CCC)c1=O | 2400 nM | 2300 nM |  |  | 
CCCn1c(=O)c2c(nc(C3CCCC3)n2C)n(CCC)c1=O | 220 nM |  |  |  | 
CCCn1c(=O)c2nc(-c3ccc(C(=O)O)cc3)[nH]c2n(CCC)c1=O |  | 200 nM |  |  | 
Cn1c(=O)c2nc(-c3ccc(S(=O)(=O)O)cc3)[nH]c2n(C)c1=O | 5500 nM |  |  | 5000 nM | 
Cn1c(=O)[nH]c2[nH]c(-c3ccccc3)nc2c1=O | 860 nM |  |  | 250 nM | Ki (Adenosine receptor A1 [6]): 130 nM; Ki (Adenosine receptor A1 [7]): 300 nM
CCCn1c(=O)[nH]c(=O)c2[nH]c(C3CCCCC3)nc21 | 1100 nM | 850 nM |  |  | 
CCCn1c(=O)c2[nH]c(-c3ccccc3)nc2n(CCC)c1=O |  |  | 5.9 nM |  | 
CCCn1c(=O)c2c(nc(C3CCCCC3)n2C)n(CCC)c1=O | 85 nM |  | 4200 nM | 1000 nM | 

Compound | Ki (Adenosine A2 receptor [1]) | Ki (Adenosine receptor A1 [2]) | Ki (Adenosine receptor A1 [3]) | Ki (Adenosine A2 receptor [5]) | also measured
Cn1c(=O)c2nc(-c3ccc(C(=O)O)cc3)[nH]c2n(C)c1=O | 1500 nM |  |  |  | 
CCCn1c(=O)c2c(nc(-c3ccc(C(=O)OC)cc3)n2C)n(CCC)c1=O | 26000 nM | 3100 nM |  |  | 
Cn1c(=O)c2nc(-c3ccccc3)[nH]c2n(C)c1=O [8-PHENYL THEOPHYLLINE] | 1900 nM |  |  | 1600 nM | 
Cn1c(=O)c2c(nc(C3CCCC3)n2C)n(C)c1=O | 2400 nM | 33000 nM | 14900 nM | 3800 nM | 
CC(C)CCn1c(=O)c2nc(-c3ccccc3)[nH]c2n(CC(C)C)c1=O | 2300 nM |  |  |  | 
CCCn1c(=O)[nH]c(=O)c2[nH]c(-c3ccccc3)nc21 | 11000 nM | 9800 nM |  |  | 
CCCn1c(=O)c2nc(-c3ccc(S(=O)(=O)O)cc3)[nH]c2n(CCC)c1=O | 1900 nM | 140 nM | 430 nM | 11000 nM | 
CCCn1c(=O)[nH]c(=O)c2[nH]c(-c3ccc(C(=O)O)cc3)nc21 | 14000 nM | 57000 nM |  |  | 
CCCn1c(=O)c2c(ncn2C)n(CCC)c1=O | 2800 nM | 3400 nM | 12000 nM | 5300 nM | 
CCCn1c(=O)c2c(nc(-c3ccc(C(=O)O)cc3)n2C)n(CCC)c1=O | 13000 nM | 4800 nM |  |  | 
CCCn1c(=O)c2c(nc(-c3ccc(S(=O)(=O)O)cc3)n2C)n(CCC)c1=O | 2100 nM | 15000 nM | 4900 nM | 5600 nM | 
Cn1c(=O)c2nc(C3CCCCC3)[nH]c2n(C)c1=O | 150 nM | 110 nM | 41 nM | 450 nM | 
COC(=O)c1ccc(-c2nc3c(c(=O)n(C)c(=O)n3C)n2C)cc1 | 25000 nM | 43000 nM |  |  | 
CCCn1c(=O)[nH]c2[nH]c(-c3ccccc3)nc2c1=O | 20 nM | 67 nM | 36 nM | 73 nM | 
Cn1c(=O)c2c(nc(-c3ccccc3)n2C)n(C)c1=O | 14000 nM | 15000 nM |  |  | 
Cn1c(=O)c2c(nc(-c3ccc(S(=O)(=O)O)cc3)n2C)n(C)c1=O | 57000 nM |  |  | 150000 nM | Ki (Adenosine receptor A1 [8]): Not Active; Ki (Adenosine receptor A1 [9]): Not Active
